Patent US8471004B2, “Bicyclic compounds” (Hoffman-La Roche Inc., priority 2009, dated 2013)

The compounds below were run against T1, human chemokine receptor 2 isoform B (Homo sapiens, UniProt P41597) (assay: Calcium mobilization assay (CHOK1-CCR2B-A5 cells, FLIPR, MCP-1 stimulated)). Conditions: Ca mobilisation assay for CCR2, antagonist activity, 50% inhibition of specific calcium increases after 20 nM MCP-1.
T1 construct: host or cells: CHOK1-CCR2B-A5 (CHO-K1)
T1 sequence (P41597 1-360 isoform P41597-2): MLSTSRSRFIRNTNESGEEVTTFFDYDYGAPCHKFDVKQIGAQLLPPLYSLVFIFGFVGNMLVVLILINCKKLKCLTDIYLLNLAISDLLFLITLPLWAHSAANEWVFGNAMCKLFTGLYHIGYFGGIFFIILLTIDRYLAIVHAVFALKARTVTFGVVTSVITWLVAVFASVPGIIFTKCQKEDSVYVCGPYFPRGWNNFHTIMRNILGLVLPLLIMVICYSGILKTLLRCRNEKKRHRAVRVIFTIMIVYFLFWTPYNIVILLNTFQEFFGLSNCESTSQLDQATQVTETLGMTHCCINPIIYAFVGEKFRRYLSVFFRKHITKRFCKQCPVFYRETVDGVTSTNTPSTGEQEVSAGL
Type: cell-based
Method in brief: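 Antagonism read as IC50 against 20 nM MCP-1-evoked calcium rise (peak minus baseline Fluo-4 signal, FLIPR) in CCR2B-overexpressing CHO-K1 cells. Compounds were preincubated 20-30 min at 30 °C, with agonist activity recorded for 80 s on addition.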

| IC50 [nM] | SMILES |
| --- | --- |
| 16.7 | C[C@H]1C(=O)N2[C@@H](CCN3CCC4(CC4)C(F)(F)C3)COC[C@H]2CN1C(=O)Nc1ccc(Cl)c(Cl)c1 [Example 53, (4S,7S,9aR)—N-(3,4-dichlorophenyl)-4-(2-(4,4-difluoro-6-azaspiro[2.5]octan-6-yl)ethyl)-7-methyl-6-oxohexahydropyrazino[2,1-c][1,4]oxazine-8(1H)-carboxamide] |
| 170 | C[C@H]1C(=O)N2[C@@H](CCN3CCC4(CC4)C(F)(F)C3)COC[C@H]2CN1C(=O)Nc1cccc(Cl)c1 [Example 54, (4S,7S,9aR)—N-(3-chlorophenyl)-4-(2-(4,4-difluoro-6-azaspiro[2.5]octan-6-yl)ethyl)-7-methyl-6-oxohexahydropyrazino[2,1-c][1,4]oxazine-8(1H)-carboxamide] |
| 34.3 | C[C@H]1C(=O)N2[C@@H](CCN3CCC4(CC4)C(F)(F)C3)COC[C@H]2CN1C(=O)Nc1ccc(C(F)(F)F)c(Cl)c1 [Example 55, (4S,7S,9aR)—N-(3-chloro-4-(trifluoromethyl)phenyl)-4-(2-(4,4-difluoro-6-azaspiro[2.5]octan-6-yl)ethyl)-7-methyl-6-oxohexahydropyrazino[2,1-c][1,4]oxazine-8(1H)-carboxamide] |
| 81 | C[C@H]1C(=O)N2[C@@H](CCN3CCC(F)(F)CC3)COC[C@H]2CN1C(=O)Nc1ccc(Cl)c(Cl)c1 [Example 56, (4S,7S,9aR)—N-(3,4-dichlorophenyl)-4-(2-(4,4-difluoropiperidin-1-yl)ethyl)-7-methyl-6-oxohexahydropyrazino[2,1-c][1,4]oxazine-8(1H)-carboxamide] |
| 119 | C[C@H]1C(=O)N2[C@@H](CCN3CCC(F)(F)CC3)COC[C@H]2CN1C(=O)Nc1ccc(C(F)(F)F)c(Cl)c1 [Example 57, (4S,7S,9aR)—N-(3-chloro-4-(trifluoromethyl)phenyl)-4-(2-(4,4-difluoropiperidin-1-yl)ethyl)-7-methyl-6-oxohexahydropyrazino[2,1-c][1,4]oxazine-8(1H)-carboxamide] |
| 414 | C[C@H]1C(=O)N2[C@@H](CCN3CCS(=O)(=O)CC3)COC[C@H]2CN1C(=O)Nc1ccc(Cl)c(Cl)c1 [Example 58, (4S,7S,9aR)-4-[2-(1,1-Dioxo-thiomorpholin-4-yl)-ethyl]-7-methyl-6-oxo-hexahydro-pyrazino[2,1-c][1,4]oxazine-8-carboxylic acid (3,4-dichloro-phenyl)-amide] |
| 189 | C[C@H]1C(=O)N2[C@@H](CCN3CCS(=O)(=O)CC3)COC[C@H]2CN1C(=O)Nc1ccc(C(F)(F)F)c(Cl)c1 [Example 59, (4S,7S,9aR)-4-[2-(1,1-Dioxo-6-thiomorpholin-4-yl)-ethyl]-7-methyl-6-oxo-hexahydro-pyrazino[2,1-c][1,4]oxazine-8-carboxylic acid (3-chloro-4-trifluoromethyl-phenyl)-amide] |
| 48.2 | C[C@H]1C(=O)N2[C@@H](CCCN3CCC4(CC4)C(F)(F)C3)COC[C@H]2CN1C(=O)Nc1ccc(Cl)c(Cl)c1 [Example 60, (4S,7S,9aR)—N-(3,4-dichlorophenyl)-4-(3-(4,4-difluoro-6-azaspiro[2.5]octan-6-yl)propyl)-7-methyl-6-oxohexahydropyrazino[2,1-c][1,4]oxazine-8(1H)-carboxamide] |
| 34.1 | C[C@H]1C(=O)N2[C@@H](CCCN3CCC4(CC4)C(F)(F)C3)COC[C@H]2CN1C(=O)Nc1ccc(C(F)(F)F)c(Cl)c1 [Example 61, (4S,7S,9aR)—N-(3-chloro-4-(trifluoromethyl)phenyl)-4-(3-(4,4-difluoro-6-azaspiro[2.5]octan-6-yl)propyl)-7-methyl-6-oxohexahydropyrazino[2,1-c][1,4]oxazine-8(1H)-carboxamide] |
| 220 | C[C@H]1C(=O)N2[C@@H](CCC(=O)N3CCC4(CC4)[C@H](O)C3)CCC[C@H]2CN1C(=O)/C=C/c1ccc(F)c(Cl)c1 [Example 62, (3S,6R,9aS)-2-[(E)-3-(3-Chloro-4-fluoro-phenyl)-acryloyl]-6-[3-((S)-4-hydroxy-6-aza-spiro[2.5]oct-6-yl)-3-oxo-propyl]-3-methyl-octahydro-pyrido[1,2-a]pyrazin-4-one] |
| 10.8 | C[C@H]1C(=O)N2[C@@H](CCC(=O)N3CCC4(CC4)[C@H](O)C3)CCC[C@H]2CN1C(=O)Nc1ccc(Cl)c(Cl)c1 [Example 63, (3S,6R,9aS)-6-[3-((S)-4-Hydroxy-6-aza-spiro[2.5]oct-6-yl)-3-oxo-propyl]-3-methyl-4-oxo-octahydro-pyrido[1,2-a]pyrazine-2-carboxylic acid (3,4-dichloro-phenyl)-amide] |
| 14.3 | C[C@H]1C(=O)N2[C@@H](CCC(=O)N3CCC4(CC4)[C@H](O)C3)CCC[C@H]2CN1C(=O)Nc1ccc(C(F)(F)F)c(Cl)c1 [Example 64, (3S,6R,9aS)-6-[3-((S)-4-Hydroxy-6-aza-spiro[2.5]oct-6-yl)-3-oxo-propyl]-3-methyl-4-oxo-octahydro-pyrido[1,2-a]pyrazine-2-carboxylic acid (3-chloro-4-trifluoromethyl-phenyl)-amide] |
| 2.2 | C[C@H]1C(=O)N2[C@@H](CCN3CCC4(CC4)[C@H](O)C3)CCC[C@H]2CN1C(=O)Nc1ccc(Cl)c(Cl)c1 [Example 65, (3S,6R,9aS)-6-[2-((S)-4-Hydroxy-6-aza-spiro[2.5]oct-6-yl)-ethyl]-3-methyl-4-oxo-octahydro-pyrido[1,2-a]pyrazine-2-carboxylic acid (3,4-dichloro-phenyl)-amide] |
| 3 | C[C@H]1C(=O)N2[C@@H](CCN3CCC4(CC4)[C@H](O)C3)CCC[C@H]2CN1C(=O)Nc1cccc(Cl)c1 [Example 66, (3S,6R,9aS)-6-[2-((S)-4-Hydroxy-6-aza-spiro[2.5]oct-6-yl)-ethyl]-3-methyl-4-oxo-octahydro-pyrido[1,2-a]pyrazine-2-carboxylic acid (3-chloro-phenyl)-amide] |
| 7.9 | C[C@H]1C(=O)N2[C@@H](CCN3CCC4(CC4)[C@H](O)C3)CCC[C@H]2CN1C(=O)Nc1cccc(F)c1 [Example 67, (3S,6R,9aS)-6-[2-((S)-4-Hydroxy-6-aza-spiro[2.5]oct-6-yl)-ethyl]-3-methyl-4-oxo-octahydro-pyrido[1,2-a]pyrazine-2-carboxylic acid (3-fluoro-phenyl)-amide] |
